According to patent US10188634B2, “3-(3H-imidazo[4,5-C]pyridin-2-yl)-1 H-pyrazolo[4,3-B]pyridines and therapeutic uses thereof” (Samumed, LLC, priority 2015, dated 2019):

Legend:
Format in all cases: cell-based
[1] = tested on: Wnt activity (Sp5-Luc reporter, human Sp5 promoter with eight TCF/LEF binding sites) in SW480 colon carcinoma cells; experiment: Screening assay for Wnt activity: Sp5-Luc reporter gene assay in SW480 cells; details: 10-point dose-response starting from 10 μM, overnight incubation
Text: The screening assay for Wnt activity is described as follows. Reporter cell lines can be generated by stably transducing cancer cell lines (e.g., colon cancer) or primary cells (e.g., IEC-6 intestinal cells) with a lentiviral construct that includes a Wnt-responsive promoter driving expression of the firefly luciferase gene.
SW480 colon carcinoma cells were transduced with a lentiviral vector expressing luciferase with a human Sp5 promoter consisting of a sequence of eight TCF/LEF binding sites. SW480 cells stably expressing the Sp5-Luc reporter gene and a hygromycin resistance gene were selected by treatment with 150 μg/mL of hygromycin for 7 days. These stably transduced SW480 cells were expanded in cell culture and used for all further screening activities. Each compound was dissolved in DMSO as a 10 mM stock and used to prepare compound source plates. Serial dilution (1:3, 10-point dose-response curves starting from 10 μM) and compound transfer was performed using the ECHO 550 (Labcyte, Sunnyvale, Calif.) into 384-well white solid bottom assay plates (Greiner Bio-One) with appropriate DMSO backfill for a final DMSO concentration of 0.1%. For Sp5-Luc reporter gene assays, the cells were plated at 4,000 cells/well in 384-well plates with medium containing 1% fetal bovine serum and incubated overnight at 37° C. and 5% CO2. Following incubation, 20 μl of BrightGlo luminescence reagent (Promega) was added to each well of the 384-well assay plates. The plates were placed on an orbital shaker for 2 min and then luminescence was quantified using the Envision (Perkin Elmer) plate reader. Readings were normalized to DMSO only treated cells, and normalized activities were utilized for EC50 calculations using the dose-response log (inhibitor) vs. response -variable slope (four parameters) nonlinear regression feature available in GraphPad Prism 5.0 (or Dotmatics). For EC50 of >10 μM, the percent inhibition at 10 μM is provided.

SW480 colon cancer cells = experiment: Cell viability assay (CellTiter-Blue) in SW480 colon cancer cells; details: Homo sapiens, 96 h; for EC50: four days incubation, CellTiter-Blue cell viability
Protocol: Representative compounds were screened using the following assay procedure to assess the effect on cell viability as described below.
Each compound was dissolved in DMSO as a 10 mM stock and used to prepare compound source plates. Serial dilution (1:3, 8-point dose-response curves from 10 μM to 0.004 μM) and compound transfer was performed using the ECHO 550 (Labcyte, Sunnyvale, Calif.) into 96-well clear bottom, black-walled plates (Corning-Costar).
Approximately 2×10^3 SW480 colon cancer cells were seeded into each well and allowed to incubate in the presence or absence of compound for four days at 37° C./5% CO2. Eight replicates of DMSO-treated cells served as controls and cells treated with compound were performed in duplicate.
After incubation, 20 μL of CellTiter-Blue (Promega) was added to each well allowed to incubate for approximately 3 hours. This reagent was a buffered solution which contains resazurin, metabolically active cells were able to reduce rezarurin (blue) into resorufin (pink) which was highly fluorescent. This measured fluorescence was used as a readout for cell viability.
After incubation, the plates were read at Ex 560 nm Em 590 nm (Cytation 3, BioTek). Dose-response curves were generated and EC50 concentration values were calculated using non-linear regression curve fit in the GraphPad Prism (San Diego, Calif.) or Dotmatics' Studies Software (Bishops Stortford, UK). For EC50 of >10 μM, the percent inhibition at 10 μM is provided.

IL-6 in THP-1 cells = experiment: Inhibition of IL-6 in LPS-stimulated THP-1 human monocyte cells (HTRF); details: IL-6 HTRF; for EC50: 500 ng/mL LPS, 22 hours; for inhibition at 10 µM: LPS, read-out: percent inhibition in brackets (given for EC50 >10 μM)
Protocol: Human Monocyte Cell Culture: Human monocyte cell line (THP-1 cells; Catalog # TIB-202, ATCC, Manassas, Va.) were cultured in Roswell Park Memorial Institute (RPMI) 1640 Medium (Catalog #21870-100, Buffalo, N.Y.) with 1% L-glutamine, 1% HEPES, 1% Sodium Pyruvate, 2% Sodium Bicarbonate supplemented with 100 units/mL penicillin, 50 μg/mL streptomycin, 2-mercaptoethanol (0.05 mM) [basal medium] and 10% fetal bovine serum (Catalog #16140089, Life Technologies, Carlsbad, Calif.) at 37° C. and 5% CO2.
Compound Screening: THP-1 cells were cultured in basal media with 1% FBS for 24 hours before the start of the assay. Each compound was dissolved in DMSO as a 10 mM stock and used to prepare compound source plates. Serial dilution (1:3, 10-point dose-response curves starting from 10 μM) and compound transfer was performed using the ECHO 550 (Labcyte, Sunnyvale, Calif.) into 384-well white low volume assay plates (Greiner Bio-One) with appropriate DMSO backfill for a final DMSO concentration of 0.1%. THP-1 cells were plated at 5000 cells/well in the 384-well plates and incubated at 37° C. for 2 h. 500 ng/mL of LPS was added after 2 hours and cells were incubated for another 22 hours at 37° C. Plates were spun in a centrifuge for 1 minute at […] and a mixture of anti-IL6 XL665, and anti-IL6 Cryptate diluted in reconstitution buffer (Cisbio Inc.) was added to each well. Following incubation for 3 hrs at room temperature, Homogeneous Time-Resolved Fluorescence (HTRF) was measured using the Envision (Perkin Elmer) at 665 nm and […]. The ratio of fluorescence at 665 nm to 620 nm was used as a readout for IL6 quantification. All samples were processed in duplicate. Readings were normalized to DMSO treated cells and normalized activities were utilized for EC50 calculations using the dose-response log (inhibitor) vs. response -variable slope (four parameters) nonlinear regression feature available in GraphPad Prism 5.0 (or Dotmatics). For EC50 of >10 μM, the percent inhibition at 10 μM is provided.

[2] = tested on: LL29 cells (primary human fibroblasts derived from IPF patients) treated with TGF-β1, α-smooth muscle actin; experiment: Inhibition of the fibrotic process: αSMA staining in TGF-β1 treated primary human fibroblasts from IPF patients (LL29 cells); details: Fibroblast, 96 h; for EC50: LL29 cells treated with TGF-β1 (20 ng/mL), 4 days
Text: Representative compounds were screened using primary human fibroblasts (derived from IPF patients) treated with TGF-β1 to determine their ability to inhibit the fibrotic process.
Human Fibroblast Cell Culture: Primary human fibroblasts derived from IPF patients (LL29 cells) [^1Xiaoqiu Liu, et.al., “Fibrotic Lung Fibroblasts Show Blunted Inhibition by cAMP Due to Deficient cAMP Response Element-Binding Protein Phosphorylation”, Journal of Pharmacology and Experimental Therapeutics (2005), 315(2), 678-687; ^2Watts, K. L., et.al., “RhoA signaling modulates cyclin D1 expression in human lung fibroblasts; implications for idiopathic pulmonary fibrosis”, Respiratory Research (2006), 7(1), 88] were obtained from American Type Culture Collection (ATCC) and expanded in F12 medium supplemented with 15% Fetal Bovine Serum and Penicillin/Streptomycin.
Compound Screening: Each compound was dissolved in DMSO as a 10 mM stock and used to prepare compound source plates. […] LL29 cells are plated at 1,500 cells/well in 80 μL/well F12 medium supplemented with 1% Fetal Bovine Serum. One hour after addition of the cells, TGF-β1 (Peprotech; 20 ng/mL) was added to the plates to induce fibrosis (ref. 1 and 2 above). Wells treated with TGF-β1 and containing DMSO were used as controls. Cells were incubated at 37° C. and 5% CO2 for 4 days. Following incubation for 4 days, SYTOX green nucleic acid stain (Life Technologies [Thermo Fisher Scientific]) was added to the wells at a final concentration of 1 μM and incubated at room temperature for 30 min. Cells were then fixed using 4% formaldehyde (Electron Microscopy Sciences), washed 3 times with PBS followed by blocking and permeabilization using 3% Bovine Serum Albumin (BSA; Sigma) and 0.3% Triton X-100 (Sigma) in PBS. Cells were then stained with antibody specific to α-smooth muscle actin (αSMA; Abcam) (ref. 1 and 2 above) in 3% Bovine Serum Albumin (BSA; Sigma) and 0.3% Triton X-100 (Sigma) in PBS, and incubated overnight at 4° C. Cells were then washed 3 times with PBS, followed by incubation with Alexa Flor-647 conjugated secondary antibody (Life Technologies [Thermo Fisher Scientific]) and DAPI at room temperature for 1 hour. Cells were then washed 3 times with PBS and plates were sealed for imaging. αSMA staining was imaged by excitation at 630 nm and emission at 665 nm and quantified using the Compartmental Analysis program on the CellInsight CX5 (Thermo Scientific). Dead or apoptotic cells were excluded from analysis based on positive SYTOX green staining. % of total cells positive for αSMA were counted in each well and normalized to the average of 11 wells treated with TGF-β1 on the same plate using Dotmatics' Studies Software. The normalized averages (fold change over untreated) of 3 replicate wells for each compound concentration were used to create dose-responses curves and EC50 values were calculated using non-linear regression curve fit in the Dotmatics' Studies Software. For EC50 of >10 μM, the percent inhibition at 10 μM is provided.

| EC50 [1] | EC50 (SW480 colon cancer cells) | EC50 (IL-6 in THP-1 cells) | Structure (SMILES) | EC50 [2] | inhibition at 10 µM (IL-6 in THP-1 cells) | inhibition at 10 µM (SW480 colon cancer cells; 10 μM, four days, CellTiter-Blue, read-out: percent inhibition at 10 μM (given for EC50 of >10 μM)) | inhibition at 10 µM ([2]; LL29 cells treated with TGF-β1, 4 days, at 10 μM, read-out: percent inhibition in brackets (given for EC50 >10 μM)) |
| --- | --- | --- | --- | --- | --- | --- | --- |
| 1.71 µM | 2.14 µM | 1.68 µM | CN(C)CCNc1cc(F)cc(-c2cncc3[nH]c(-c4n[nH]c5ccc(-c6ccccn6)nc45)nc23)c1 [Compound 448, N^1-(3-Fluoro-5-(2-(5-(pyridin-2-yl)-1H-pyrazolo[4,3-b]pyridin-3-yl)-3H-imidazo[4,5-c]pyridin-7-yl)phenyl)-N^2,N^2-dimethylethane-1,2-diamine] | 0.941 µM |  |  |  |
| 3.43 µM | 9.34 µM | > 10 µM | Fc1cccc(-c2cncc3[nH]c(-c4n[nH]c5ccc(-c6cncc(OCCN7CCCC7)c6)nc45)nc23)c1 [Compound 486, 3-(7-(3-Fluorophenyl)-3H-imidazo[4,5-c]pyridin-2-yl)-5-(5-(2-(pyrrolidin-1-yl)ethoxy)pyridin-3-yl)-1H-pyrazolo[4,3-b]pyridine] | 2.12 µM | 47.4% |  |  |
| 3.85 µM | > 10 µM | 1.17 µM | Cc1ncc(-c2ccc3[nH]nc(-c4nc5c(-c6cc(F)cc(NCCN(C)C)c6)cncc5[nH]4)c3n2)n1C [Compound 737, N^1-(3-(2-(5-(1,2-Dimethyl-1H-imidazol-5-yl)-1H-pyrazolo[4,3-b]pyridin-3-yl)-3H-imidazo[4,5-c]pyridin-7-yl)-5-fluorophenyl)-N^2,N^2-dimethylethane-1,2-diamine] | 8.95 µM |  | 46.5% |  |
| 3.39 µM | 2.18 µM | 0.044 µM | COc1cncc(-c2ccc3[nH]nc(-c4nc5c(N6CCCCC6)cncc5[nH]4)c3n2)c1 [Compound 584, 5-(5-Methoxylpyridin-3-yl)-3-(7-(piperidin-1-yl)-3H-imidazo[4,5-c]pyridin-2-yl)-1H-pyrazolo[4,3-b]pyridine] | 1.65 µM |  |  |  |
| 9.7 µM | 4.42 µM | 1.4 µM | O=C(Nc1cncc(-c2ccc3[nH]nc(-c4nc5c(N6CCCCC6)cncc5[nH]4)c3n2)c1)C1CC1 [Compound 188, N-(5-(3-(7-(Piperidin-1-yl)-3H-imidazo[4,5-c]pyridin-2-yl)-1H-pyrazolo[4,3-b]pyridin-5-yl)pyridin-3-yl)cyclopropanecarboxamide] | 4.94 µM |  |  |  |
| 4.03 µM | 4.63 µM | 0.003 µM | Cc1ccc(-c2cncc3[nH]c(-c4n[nH]c5ccc(-c6cncc(OC7CCCCC7)c6)nc45)nc23)s1 [Compound 691, 5-(5-(Cyclohexyloxy)pyridin-3-yl)-3-(7-(5-methylthiophen-2-yl)-3H-imidazo[4,5-c]pyridin-2-yl)-1H-pyrazolo[4,3-b]pyridine] | 1.75 µM |  |  |  |
| 1.92 µM | 2.54 µM | 8.78 µM | CN1CCN(c2cncc3[nH]c(-c4n[nH]c5ccc(-c6cncc(OC7CCCCC7)c6)nc45)nc23)CC1 [Compound 611, 5-(5-(Cyclohexyloxy)pyridin-3-yl)-3-(7-(4-methylpiperazin-1-yl)-3H-imidazo[4,5-c]pyridin-2-yl)-1H-pyrazolo[4,3-b]pyridine] | 1.33 µM |  |  |  |
| 3.46 µM | 1.18 µM | > 10 µM | c1ccc(CNCc2cncc(-c3ccc4[nH]nc(-c5nc6c(-c7ccsc7)cncc6[nH]5)c4n3)c2)cc1 [Compound 276, N-Benzyl-1-(5-(3-(7-(thiophen-3-yl)-3H-imidazo[4,5-c]pyridin-2-yl)-1H-pyrazolo[4,3-b]pyridin-5-yl)pyridin-3-yl)methanamine] | 7.47 µM | 39.9% |  |  |
| 3.95 µM | 3.74 µM | 4.23 µM | CN(C)CCNc1cc(F)cc(-c2cncc3[nH]c(-c4n[nH]c5ccc(-c6cnccn6)nc45)nc23)c1 [Compound 748, N^1-(3-Fluoro-5-(2-(5-(pyrazin-2-yl)-1H-pyrazolo[4,3-b]pyridin-3-yl)-3H-imidazo[4,5-c]pyridin-7-yl)phenyl)-N^2,N^2-dimethylethane-1,2-diamine] | > 10 µM |  |  | 41.3% |
